# According to US11186548B2 (priority 2017, dated 2021):
# pIC50: −log10 of the molar value. Entries after “also recorded” stand apart in the source; their conditions may differ. Like-named read-outs stand apart in the source and are kept apart here.
# Assays:
# [1] = target: human AChE (Homo sapiens, UniProt P22303); assay type: biochemical
# [2] = male, guinea pig, in vivo
# [3] = guinea pig, in vivo; for percentage of the administered dose in the brain / LogBB / brain concentration / plasma concentration: male; for LogBB / brain concentration / plasma concentration: iv
# [4] = in vivo; details: male, guinea pig, iv
# [5] = in vivo; details: male, guinea pig
# [6] = target: CYP3A4 (Homo sapiens, UniProt P08684); assay: biochemical
# Sequence of CYP3A4 (P08684 whole entry): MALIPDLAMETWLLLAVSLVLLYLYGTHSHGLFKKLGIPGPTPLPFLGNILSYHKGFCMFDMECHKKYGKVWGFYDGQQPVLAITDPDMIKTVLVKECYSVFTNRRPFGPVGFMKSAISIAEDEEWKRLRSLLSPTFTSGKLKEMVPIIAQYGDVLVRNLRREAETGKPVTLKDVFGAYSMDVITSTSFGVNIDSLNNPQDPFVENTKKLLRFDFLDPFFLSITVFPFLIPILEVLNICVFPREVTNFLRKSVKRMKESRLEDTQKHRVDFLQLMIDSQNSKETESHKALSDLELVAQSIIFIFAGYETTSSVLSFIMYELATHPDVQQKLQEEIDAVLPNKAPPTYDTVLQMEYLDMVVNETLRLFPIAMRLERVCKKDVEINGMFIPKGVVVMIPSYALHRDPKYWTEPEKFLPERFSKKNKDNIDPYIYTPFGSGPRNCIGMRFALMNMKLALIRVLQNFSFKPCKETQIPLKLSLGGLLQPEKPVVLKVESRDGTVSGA
# [7] = Microsomal stability assay; details: microsomes
# [8] = Human plasma stability assay
# [9] = target: hERG channel (Homo sapiens, UniProt Q12809); assay: hERG channel patch clamp assay
# Sequence of hERG channel (Q12809 whole entry): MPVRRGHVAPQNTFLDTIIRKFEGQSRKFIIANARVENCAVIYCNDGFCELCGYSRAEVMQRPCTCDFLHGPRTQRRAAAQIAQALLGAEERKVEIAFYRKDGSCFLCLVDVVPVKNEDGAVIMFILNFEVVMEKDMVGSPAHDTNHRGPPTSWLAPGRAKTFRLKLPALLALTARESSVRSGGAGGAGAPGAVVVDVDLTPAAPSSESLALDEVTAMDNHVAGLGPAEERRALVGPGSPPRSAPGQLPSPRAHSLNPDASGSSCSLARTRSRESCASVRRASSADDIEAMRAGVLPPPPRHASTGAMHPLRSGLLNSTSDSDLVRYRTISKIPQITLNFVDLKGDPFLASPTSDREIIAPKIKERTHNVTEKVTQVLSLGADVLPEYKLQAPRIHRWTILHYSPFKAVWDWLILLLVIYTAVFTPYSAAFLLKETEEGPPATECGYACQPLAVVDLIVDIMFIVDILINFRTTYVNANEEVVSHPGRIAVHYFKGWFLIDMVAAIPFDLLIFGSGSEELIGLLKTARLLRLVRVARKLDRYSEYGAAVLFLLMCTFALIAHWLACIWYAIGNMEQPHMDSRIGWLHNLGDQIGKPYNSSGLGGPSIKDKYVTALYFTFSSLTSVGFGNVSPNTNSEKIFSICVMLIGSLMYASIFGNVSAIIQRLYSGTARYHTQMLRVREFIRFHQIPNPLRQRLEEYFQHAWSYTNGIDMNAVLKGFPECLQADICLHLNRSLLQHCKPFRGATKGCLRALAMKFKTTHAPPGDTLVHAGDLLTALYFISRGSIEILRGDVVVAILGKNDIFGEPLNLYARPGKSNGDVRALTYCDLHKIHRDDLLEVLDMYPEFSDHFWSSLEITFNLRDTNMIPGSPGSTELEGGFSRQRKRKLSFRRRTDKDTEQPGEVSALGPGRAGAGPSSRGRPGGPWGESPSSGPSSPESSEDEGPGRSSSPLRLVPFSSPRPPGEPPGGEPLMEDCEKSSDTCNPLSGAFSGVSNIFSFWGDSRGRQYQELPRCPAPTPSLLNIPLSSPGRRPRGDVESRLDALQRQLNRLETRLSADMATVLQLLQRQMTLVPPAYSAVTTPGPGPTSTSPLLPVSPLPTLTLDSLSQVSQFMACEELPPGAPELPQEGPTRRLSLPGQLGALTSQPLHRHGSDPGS
# [10] = target: MDR1 (P-gp) (Homo sapiens, UniProt P08183); assay: MDR1-MDCK efflux assay (net flux ratio); details: 37° C., three hours
# Sequence of MDR1 (P-gp) (P08183 whole entry): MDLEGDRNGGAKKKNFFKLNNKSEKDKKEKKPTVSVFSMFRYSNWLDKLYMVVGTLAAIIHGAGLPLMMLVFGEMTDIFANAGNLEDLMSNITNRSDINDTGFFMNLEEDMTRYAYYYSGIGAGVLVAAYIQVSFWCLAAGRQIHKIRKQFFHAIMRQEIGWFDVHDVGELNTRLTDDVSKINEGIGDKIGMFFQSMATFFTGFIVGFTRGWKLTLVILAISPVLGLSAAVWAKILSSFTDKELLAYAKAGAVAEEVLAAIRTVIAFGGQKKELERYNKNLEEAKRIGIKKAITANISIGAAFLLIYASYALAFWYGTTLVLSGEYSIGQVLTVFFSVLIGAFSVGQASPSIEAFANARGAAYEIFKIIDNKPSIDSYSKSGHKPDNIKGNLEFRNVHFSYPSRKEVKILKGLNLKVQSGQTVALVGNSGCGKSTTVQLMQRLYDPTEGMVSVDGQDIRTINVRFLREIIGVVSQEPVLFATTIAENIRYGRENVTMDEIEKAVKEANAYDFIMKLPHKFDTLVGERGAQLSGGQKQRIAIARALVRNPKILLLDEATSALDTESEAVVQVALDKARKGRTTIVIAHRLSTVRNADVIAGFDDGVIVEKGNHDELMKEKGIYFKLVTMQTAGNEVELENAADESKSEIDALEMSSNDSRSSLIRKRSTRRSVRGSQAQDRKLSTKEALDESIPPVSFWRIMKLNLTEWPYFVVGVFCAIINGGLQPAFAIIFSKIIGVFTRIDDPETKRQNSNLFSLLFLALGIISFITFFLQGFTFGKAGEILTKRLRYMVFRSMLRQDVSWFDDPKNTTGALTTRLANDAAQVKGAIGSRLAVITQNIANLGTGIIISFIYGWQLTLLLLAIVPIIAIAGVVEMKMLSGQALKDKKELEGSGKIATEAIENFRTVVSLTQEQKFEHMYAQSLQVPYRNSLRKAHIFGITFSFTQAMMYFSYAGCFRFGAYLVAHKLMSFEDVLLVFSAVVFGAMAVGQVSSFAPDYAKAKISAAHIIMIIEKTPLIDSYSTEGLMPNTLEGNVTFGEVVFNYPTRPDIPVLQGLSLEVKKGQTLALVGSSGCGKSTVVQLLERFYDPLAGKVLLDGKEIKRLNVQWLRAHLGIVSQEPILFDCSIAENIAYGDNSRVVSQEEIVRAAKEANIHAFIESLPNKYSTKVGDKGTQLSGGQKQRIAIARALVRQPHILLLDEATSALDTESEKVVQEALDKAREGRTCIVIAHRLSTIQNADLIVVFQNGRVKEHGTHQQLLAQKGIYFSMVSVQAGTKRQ
# [11] = Parallel Artificial Membrane Permeability Assay (PAMPA); details: about 100 μM, five hours, 25° C.
# [12] = target: CYP2C19 (Homo sapiens, UniProt P33261); assay: Cytochrome P450 inhibition with fluorescent probe substrate
# Sequence of CYP2C19 (P33261 whole entry): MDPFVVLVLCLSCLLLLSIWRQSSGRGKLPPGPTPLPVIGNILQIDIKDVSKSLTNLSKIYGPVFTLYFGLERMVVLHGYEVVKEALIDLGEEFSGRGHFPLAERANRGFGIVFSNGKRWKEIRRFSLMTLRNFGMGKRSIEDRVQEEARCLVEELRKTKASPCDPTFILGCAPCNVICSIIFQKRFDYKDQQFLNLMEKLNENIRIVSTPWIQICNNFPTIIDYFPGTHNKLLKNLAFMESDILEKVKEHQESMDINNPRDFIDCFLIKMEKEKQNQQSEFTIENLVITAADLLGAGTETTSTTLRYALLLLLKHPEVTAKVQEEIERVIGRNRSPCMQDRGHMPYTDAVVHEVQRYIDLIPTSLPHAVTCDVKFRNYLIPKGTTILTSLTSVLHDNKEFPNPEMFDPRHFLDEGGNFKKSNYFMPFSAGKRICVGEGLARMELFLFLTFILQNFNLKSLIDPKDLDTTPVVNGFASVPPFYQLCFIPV
# Sequence of human AChE (P22303-2 with tags, fused parts or gaps limits assumed): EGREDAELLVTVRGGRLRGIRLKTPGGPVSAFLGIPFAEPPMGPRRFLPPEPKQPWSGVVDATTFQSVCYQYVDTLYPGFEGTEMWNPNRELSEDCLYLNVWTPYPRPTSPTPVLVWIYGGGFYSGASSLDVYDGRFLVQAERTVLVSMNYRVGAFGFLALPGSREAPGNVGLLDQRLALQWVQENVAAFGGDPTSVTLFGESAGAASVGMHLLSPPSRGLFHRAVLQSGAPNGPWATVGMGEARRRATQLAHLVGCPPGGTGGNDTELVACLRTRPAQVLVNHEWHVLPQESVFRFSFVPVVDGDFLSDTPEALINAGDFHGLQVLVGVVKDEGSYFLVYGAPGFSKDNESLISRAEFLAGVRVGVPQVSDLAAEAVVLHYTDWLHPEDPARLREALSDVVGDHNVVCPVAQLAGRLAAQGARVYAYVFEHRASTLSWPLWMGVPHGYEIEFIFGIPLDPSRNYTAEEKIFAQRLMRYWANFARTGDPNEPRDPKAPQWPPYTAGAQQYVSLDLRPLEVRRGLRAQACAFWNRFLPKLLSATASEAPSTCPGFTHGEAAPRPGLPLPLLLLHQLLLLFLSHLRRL
structure (smiles),measurement,setting,value
C[C@@H](CN1CCCc2ccccc2C1)NC(=O)/C=N/O [LLNL-02],"fraction of AChE reactivated at 30 minutes, methylated versus des-methyl analog",[1],significantly lower reactivation relative to the des-methyl counterpart
same,reactivation of adducted AChE relative to the 2-PAM standard of care,[1],approximately 40%
same,increase in mean AUC0-t,[2],2.5 fold
same,AUC0-t,"[2]; iv, 10 mg/kg",28480 ng·h/mL
same,T½ elim.,"[2]; iv, 10 mg/kg",606.6 min
same,Vd (area),"[2]; iv, 10 mg/kg",6.32268 L/kg
same,time of Cmax in the brain,[3],5 min
same,percentage of the administered dose in the brain,[3],0.3-0.7%
same,percentage of the administered dose in the brain,[3]; 1 mg/kg,0.3%
same,percentage of the administered dose in the brain,[3]; 5 mg/kg,0.3%
same,percentage of the administered dose in the brain,[3]; 20 mg/kg,0.7%
same,LogBB,[3]; 1 mg/kg,−0.879
same,brain concentration,[3]; 1 mg/kg,0.191 µg/g
same,plasma concentration,[3]; 1 mg/kg,1.443 µg/g
same,LogBB,[3]; 5 mg/kg,−0.649
same,brain concentration,[3]; 5 mg/kg,1.421 µg/g
same,plasma concentration,[3]; 5 mg/kg,6.352 µg/g
same,LogBB,[3]; 10 mg/kg,−0.311
same,brain concentration,[3]; 10 mg/kg,5.269 µg/g
same,plasma concentration,[3]; 10 mg/kg,10.790 µg/g
same,LogBB,[3]; 20 mg/kg,−0.276
same,brain concentration,[3]; 20 mg/kg,10.048 µg/g
same,plasma concentration,[3]; 20 mg/kg,19.009 µg/g
same,half-life,"[4]; 1 mg/kg, T½ dist.",23.4 min
same,half-life,"[4]; 5 mg/kg, T½ dist.",24 min
same,AUC(0-inf),[4]; 10 mg/kg,73400 ng·h/mL
same,AUC0-t,"[4]; 10 mg/kg, AUC0-t",28400 ng·h/mL
same,half-life,"[4]; 10 mg/kg, T½ dist.",15 min
same,half-life,"[4]; 10 mg/kg, T½ elim.",606 min
same,Vd,"[4]; 10 mg/kg, Vd (area)",6.32 L/kg
same,half-life,"[4]; 20 mg/kg, T½ dist.",23.4 min
same,Vd,"[4]; 20 mg/kg, apparent volume of distribution (Vd)",3.75 to 6.32 L/kg
same,half-life,"[4]; 20 mg/kg, mean apparent distribution half-life (t1/2α)",15 to 24 min
same,half-life,"[4]; 20 mg/kg, terminal half-life (t1/2 β)",606 to 1130 min
same,clearance,"[4]; 20 mg/kg, total clearance from plasma (CL)",2.27 to 5.19 mL/min/kg
same,Cmax,[5],1420 to 10000 ng/g
same,pIC50,[6],< 5.00
same,half-life,[7],> 60 min
same,microsomal CLint,[7],< 23 µL/min/mg
same,human plasma stability (percent remaining after 1 hour),"[8]; human plasma, 1 hour at 37° C.",over 90%
same,degradation in human plasma,[8]; one hour,< 10%
same,concentration not toxic to the hERG channel,[9],> 10 µM
same,MDR1 efflux substrate status from net flux ratio,[10],may be a moderate efflux substrate; also recorded: moderate efflux substate
same,PAMPA permeability,[11],"high permeability through the BBB; also recorded: high permeability comparable to that of the highly permeable positive control compound, diazepam; also recorded: elevated permeability relative to other selected compounds; also recorded: superior permeation relative to LLNL-03"
same,pIC50,[12],< 5.00
